# *1 amine or outer side, *2 acyl side, *3 side chain or, on linkers, in order; H or OH if unused. Where a SMILES comes first, the peptide text is derived from it. Bridges are numbered along the chain shown (N, C = ends). [ ]: non-standard residue; d: D form. The star is where a group is joined. X2 = C=C(N[*:2])c1nc(-c2nc(-c3nc(C(=O)NCCC(=O)NCCOCCOCCCCCCCl)cs3)ccc2C(=O)[*:1])cs1; X1 = C=C(N[*:2])c1nc(-c2nc(-c3nc(C(=O)OC)cs3)ccc2C(=O)[*:1])cs1; Nle = CCCC[C@H](N)C(=O)O; Dhb = C/C=C(\N)C(=O)O; Dha = C=C(N)C(=O)O; Cam = NC(=O)C*
# Columns and labels:
# TNIK mRNA = TNIK mRNA level in HCT116 cells (RT-qPCR); assay type: cell-based, human
# Description: (§1) The sub-confluent HCT116 cells were treated with the indicated compounds for 24 hours and the cellular levels of TNIK, TNIK pSer764 (autophosphorylation product), c-Myc, and Axin2 were analyzed by an immunoblotting method (FIG. 7(b)) and RT-qPCR (FIG. 7(c)).
# TNIK [1] = assay: TNIK protein level in HCT116 cells (immunoblotting); assay type: cell-based, human
# Description: as §1
# TNIK pSer764 = assay: Immunoblotting of TNIK pSer764 (TNIK autophosphorylation) in HCT116 cells; assay type: cell-based, human; details: 20 μM of TP15, 24 hours, immunoblotting
# Description: as §1
# Nat. Commun. 2016, 7, 12586).
# [2] = tested on: NF-kB signaling pathway in THP-1 cells; assay: Inhibition of NFkB reporter gene activity in THP1-XBlue stable cell line; assay type: cell-based, human
# Excerpt: (§2) FIG. 11(a) illustrates TL12 which is a lactazole-like binder of TLR10, retrosynthesis thereof, and amino acid building blocks used. FIG. 11(b) illustrates a binding affinity (KD value) to IRAK4 and an inhibition (IC50) by the synthesized thiopeptide. The half-life (τ1/2) in the human serum and the inhibition (IC50) of the NF-kB signaling pathway in THP-1 cells are also shown. These values were obtained by non-linear regression of the experimental data.: The shaded C in IR4 is hGln (which is a product of IAA alkylation of Cys, but is replaced by homoglutamine); the shaded M in IR15 is Nle (in which Met is replaced by Nle); and the shaded T in IR15 represents a Dhb residue. […] FIG. 11(c) illustrates the binding affinity (KD value) to TLR10 and the half-life (τ1/2) in the human serum.: The shaded C in TL1, TL8, and TL16 is hGln (a product of IAA alkylation of Cys, but is replaced by homoglutamine); the shaded M in TL8, TL11, TL12, TL13, and TL18 is Nle (in which Met is replaced by Nle); the shaded S in 8S of TL11 and TL12 represents a Dha residue; and the shaded S in 9S of TL12 represents an oxazole. […] FIG. 11(d) illustrates the results of a CAPA assay of IR1, IR15, and TP8. The assay was carried out in HEK293T cells.
# (§3) Finally, the cell activity of the thiopeptide against IRAK4, which is an intracellular target protein localized in the cytoplasm and the cell nucleus, was examined. […]
# [3] = Metabolic stability in human serum (LC/MS); assay type: in vitro ADME; details: 37 °C
# Description: The compounds were incubated with a human serum at 37 °C, and the amount of the residual test substance at various points in time was quantified by LC/MS with respect to an internal standard substance. […] Next, it was examined whether or not the half-lives of the compounds were affected by the reactivity of the Dha residue. The Dha residue may be conjugated with various serum thiols.
# In addition, the metabolic stability of all of the 14 types of candidate thiopeptides was examined. The compound was incubated with the human serum at 37 °C, and the amount of the residual thiopeptide at various points in time was quantified by LC/MS with respect to the internal standard substance. The half-life of the thiopeptide for TLR10 was generally as long as 38.2 hours, and the thiopeptide was stable.
# TNIK [4] = biological target: TNIK (Homo sapiens, UniProt Q9UKE5); assay: Surface plasmon resonance (SPR) binding affinity to TNIK; details: saturated concentration of ATP (1 mM; 15-fold higher than KM)
# Chain of TNIK (Homo sapiens, UniProt Q9UKE5) (Q9UKE5 whole entry): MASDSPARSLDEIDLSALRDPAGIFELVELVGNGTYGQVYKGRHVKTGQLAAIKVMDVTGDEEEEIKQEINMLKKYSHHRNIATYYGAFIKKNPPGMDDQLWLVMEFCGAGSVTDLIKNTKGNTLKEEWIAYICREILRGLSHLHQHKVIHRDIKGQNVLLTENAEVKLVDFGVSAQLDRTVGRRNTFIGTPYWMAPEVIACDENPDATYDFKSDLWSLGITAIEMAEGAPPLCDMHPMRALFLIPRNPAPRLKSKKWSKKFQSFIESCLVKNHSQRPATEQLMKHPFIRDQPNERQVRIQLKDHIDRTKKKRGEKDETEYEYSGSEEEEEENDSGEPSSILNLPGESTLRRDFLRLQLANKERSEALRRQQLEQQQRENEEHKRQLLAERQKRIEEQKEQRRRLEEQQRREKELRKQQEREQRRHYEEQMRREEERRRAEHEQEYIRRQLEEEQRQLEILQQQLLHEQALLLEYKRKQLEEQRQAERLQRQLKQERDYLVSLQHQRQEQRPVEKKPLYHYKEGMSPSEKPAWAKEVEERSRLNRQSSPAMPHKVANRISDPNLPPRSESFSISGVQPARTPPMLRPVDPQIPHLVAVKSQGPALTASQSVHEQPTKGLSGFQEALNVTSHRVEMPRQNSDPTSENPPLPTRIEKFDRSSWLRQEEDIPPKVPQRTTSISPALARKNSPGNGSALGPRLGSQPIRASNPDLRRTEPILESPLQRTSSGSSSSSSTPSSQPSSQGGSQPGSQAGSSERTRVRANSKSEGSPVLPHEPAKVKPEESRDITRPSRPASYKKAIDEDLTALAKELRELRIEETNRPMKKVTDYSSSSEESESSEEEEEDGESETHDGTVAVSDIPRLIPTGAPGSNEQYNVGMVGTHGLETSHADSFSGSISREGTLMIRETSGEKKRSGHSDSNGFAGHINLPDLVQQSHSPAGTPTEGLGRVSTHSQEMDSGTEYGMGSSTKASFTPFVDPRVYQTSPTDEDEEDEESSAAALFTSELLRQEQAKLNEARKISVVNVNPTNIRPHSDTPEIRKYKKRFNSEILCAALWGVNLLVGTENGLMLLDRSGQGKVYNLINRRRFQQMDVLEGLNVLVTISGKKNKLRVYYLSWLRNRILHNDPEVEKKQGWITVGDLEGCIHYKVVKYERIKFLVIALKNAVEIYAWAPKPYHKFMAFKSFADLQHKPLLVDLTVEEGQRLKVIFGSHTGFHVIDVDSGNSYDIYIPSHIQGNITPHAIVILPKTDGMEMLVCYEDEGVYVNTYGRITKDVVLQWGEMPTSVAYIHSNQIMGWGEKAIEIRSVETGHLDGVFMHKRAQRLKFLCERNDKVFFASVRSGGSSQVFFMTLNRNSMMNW
# Excerpt: Surface plasmon resonance (SPR) was used to evaluate the binding affinity of the thiopeptide synthesized in Example 2 to TNIK.
# HEK293H cells = assay: Chloroalkane penetration assay (CAPA) in HEK293H cells; assay type: cell-based, human; details: chloroalkane-labeled derivatives
# Description: as §1
# Next, it was confirmed whether or not the obtained compound could also access an intracellular target protein (TNIK is localized in the cytoplasm and the cell nucleus) in a human cell model. First, a chloroalkane penetration assay (CAPA) was performed on 4 types (TP1-ct, TP8-ct, TP14-ct, and TP15-ct) out of the 6 types of chloroalkane-labeled thiopeptide derivatives shown in FIG. 5 in order to measure an uptake degree into the cytoplasm (Peraro, L.; Deprey, K. L.; Moser, M. K.; Zou, Z.; Ball, H. L.; Levine, B.; and Kritzer, J. A. Cell Penetration Profiling Using the Chloroalkane Penetration Assay. J. Am. Chem. Soc. 2018, 140, 11360-11369).
# [5] = Stability / reactivity towards glutathione (GSH), LC/MS; assay type: physicochemical; details: for reactivity with GSH, in words: increasing concentration of glutathione (GSH)
# HEK293T cells = assay: Chloroalkane penetration assay (CAPA) in HEK293T cells; assay type: cell-based, human; details: compared with Tat
# Excerpt: as §2, §3
smiles,measurement,setting,value
"OC1CCC(Oc2cccc3cnc(Nc4ccc5nc[nH]c5c4)nc23)CC1 (centres unmarked) [NCB0846, reference compound]","overall expression of TNIK, mRNA level",TNIK mRNA,down-regulated
same,"overall expression of TNIK, protein level",TNIK [1],down-regulated
same,level of TNIK pSer764,TNIK pSer764,the same
C=C1NC(=O)/C(=C/C)NC(=O)[C@H](Cc2c[nH]c3ccccc23)NC(=O)[C@H](Cc2c[nH]cn2)NC(=O)[C@H](Cc2c[nH]c3ccccc23)NC(=O)[C@H]([C@@H](C)O)NC(=O)[C@H]([C@@H](C)CC)NC(=O)[C@H](Cc2ccccc2)NC(=O)[C@H](CCC(N)=O)NC(=O)[C@H](CCCNC(=N)N)NC(=O)[C@H](CCCCN)NC(=O)[C@H](CCCC)NC(=O)[C@H](CO)NC(=O)[C@H](Cc2c[nH]c3ccccc23)NC(=O)c2ccc(-c3nc(C(=O)NCCC(=O)NCCOCCOCCCCCCCl)cs3)nc2-c2csc1n2 [IR15-ct] (WS[Nle]KRQFITWHW[Dhb]; linker N-C via X2),"inhibition of NFkB reporter gene activity, in words",[2],significant inhibition
C=C1NC(=O)CNC(=O)[C@H](CC(N)=O)NC(=O)[C@H](CC(C)C)NC(=O)CNC(=O)[C@H](CCCCN)NC(=O)[C@H](C)NC(=O)[C@H]([C@@H](C)CC)NC(=O)[C@H](CO)NC(=O)[C@H](Cc2c[nH]c3ccccc23)NC(=O)[C@H](C)NC(=O)[C@H](Cc2c[nH]c3ccccc23)NC(=O)c2ccc(-c3nc(C(=O)OC)cs3)nc2-c2csc1n2 [TP8] (WAWSIAKGLNG; linker N-C via X1),half-life (τ1/2) in human serum,[3],14 h
same,"stability in human serum, in words",[3],good stability
same,binding to TNIK in the presence of ATP,TNIK [4],bonded to TNIK in the presence of the saturated concentration of ATP
C=C1NC(=O)[C@H](CCCCN)NC(=O)[C@H](Cc2ccc(O)cc2)NC(=O)[C@H]([C@@H](C)CC)NC(=O)[C@H](CCCNC(=N)N)NC(=O)[C@H](CCCNC(=N)N)NC(=O)[C@H](CCCCN)NC(=O)[C@H](Cc2ccccc2)NC(=O)[C@H](CC(C)C)NC(=O)[C@H](CCSC)NC(=O)[C@H](CO)NC(=O)[C@H](Cc2c[nH]c3ccccc23)NC(=O)c2ccc(-c3nc(C(=O)NCCC(=O)NCCOCCOCCCCCCCl)cs3)nc2-c2csc1n2 [IR1-ct] (WSMLFKRRIYK; linker N-C via X2),"inhibition of NFkB reporter gene activity, in words",[2],significant inhibition
C=C1NC(=O)CNC(=O)[C@H](CCCNC(=N)N)NC(=O)[C@H](Cc2ccc(O)cc2)NC(=O)[C@H](CC(C)C)NC(=O)[C@H](CO)NC(=O)[C@H](CCCCN)NC(=O)[C@H](CC(N)=O)NC(=O)CNC(=O)[C@H](Cc2ccccc2)NC(=O)[C@H](Cc2c[nH]c3ccccc23)NC(=O)[C@H](Cc2c[nH]c3ccccc23)NC(=O)c2ccc(-c3nc(C(=O)OC)cs3)nc2-c2csc1n2 [TP14] (WWFGNKSLYRG; linker N-C via X1),"cytoplasmic uptake (CAPA), in words",HEK293H cells,efficient cytoplasmic translocation
same,"stability in human serum, in words",[3],short half-life
same,residual amount in the presence of GSH,"[5]; 10 mM GSH, after 24 hours",> 95%
same,"reactivity with GSH, in words",[5],stable
same,binding to TNIK in the presence of ATP,TNIK [4],bonded to TNIK in the presence of the saturated concentration of ATP
C=C1NC(=O)c2csc(n2)[C@H]([C@@H](C)O)NC(=O)[C@H](C)NC(=O)[C@H]([C@@H](C)CC)NC(=O)[C@H](CCCNC(=N)N)NC(=O)CNC(=O)[C@H](CCCNC(=N)N)NC(=O)[C@H]([C@@H](C)O)NC(=O)[C@H](CCCNC(=N)N)NC(=O)[C@H]([C@@H](C)CC)NC(=O)[C@H]([C@@H](C)O)NC(=O)[C@H](Cc2c[nH]c3ccccc23)NC(=O)c2ccc(-c3nc(C(=O)NCCC(=O)NCCOCCOCCCCCCCl)cs3)nc2-c2csc1n2 [TP15-ct],"cytoplasmic uptake (CAPA), in words",HEK293H cells,taken up into HEK293H cells at a concentration of a single-digit μM
C=C1NC(=O)/C(=C/C)NC(=O)[C@H](Cc2c[nH]c3ccccc23)NC(=O)[C@H](Cc2c[nH]cn2)NC(=O)[C@H](Cc2c[nH]c3ccccc23)NC(=O)[C@H]([C@@H](C)O)NC(=O)[C@H]([C@@H](C)CC)NC(=O)[C@H](Cc2ccccc2)NC(=O)[C@H](CCC(N)=O)NC(=O)[C@H](CCCNC(=N)N)NC(=O)[C@H](CCCCN)NC(=O)[C@H](CCCC)NC(=O)[C@H](CO)NC(=O)[C@H](Cc2c[nH]c3ccccc23)NC(=O)c2ccc(-c3nc(C(=O)OC)cs3)nc2-c2csc1n2 [IR15] (WS[Nle]KRQFITWHW[Dhb]; linker N-C via X1),"uptake into cytoplasm of HEK293T cells, in words",HEK293T cells,taken up into the cytoplasm of HEK293T cells much more efficiently than Tat
same,uptake into HEK293T cells relative to Tat,HEK293T cells; in the presence of serum,2 fold
C=C1NC(=O)[C@H](CO)NC(=O)[C@H](CSCC(N)=O)NC(=O)CNC(=O)[C@H](Cc2ccc(O)cc2)NC(=O)[C@H](C)NC(=O)[C@H](CO)NC(=O)[C@H](CC(=O)O)NC(=O)CNC(=O)[C@H](CC(C)C)NC(=O)[C@H](Cc2c[nH]c3ccccc23)NC(=O)[C@H](Cc2c[nH]c3ccccc23)NC(=O)c2ccc(-c3nc(C(=O)OC)cs3)nc2-c2csc1n2 [TP4] (WWLGDSAYGC(Cam)S; linker N-C via X1),half-life (τ1/2) in human serum,[3],88 h
same,"stability in human serum, in words",[3],good stability
C=C1NC(=O)C(=C)NC(=O)[C@H](CCCCN)NC(=O)[C@H](CC(C)C)NC(=O)[C@H]([C@@H](C)O)NC(=O)[C@H](CCCCN)NC(=O)[C@H](Cc2ccc(O)cc2)NC(=O)[C@H]([C@@H](C)CC)NC(=O)[C@H](Cc2ccccc2)NC(=O)CNC(=O)[C@H](Cc2c[nH]c3ccccc23)NC(=O)c2ccc(-c3nc(C(=O)NCCC(=O)NCCOCCOCCCCCCCl)cs3)nc2-c2csc(n2)C(=C)NC(=O)CNC1=O [TP1-ct] (WGFIYKTLK[Dha][Dha]G; linker N-C via X2),"cytoplasmic uptake (CAPA), in words",HEK293H cells,taken up into HEK293H cells at a concentration of a single-digit μM
C=C1NC(=O)CNC(=O)[C@H](CCCNC(=N)N)NC(=O)[C@H](Cc2ccc(O)cc2)NC(=O)[C@H](CC(C)C)NC(=O)[C@H](CO)NC(=O)[C@H](CCCCN)NC(=O)[C@H](CC(N)=O)NC(=O)CNC(=O)[C@H](Cc2ccccc2)NC(=O)[C@H](Cc2c[nH]c3ccccc23)NC(=O)[C@H](Cc2c[nH]c3ccccc23)NC(=O)c2ccc(-c3nc(C(=O)NCCC(=O)NCCOCCOCCCCCCCl)cs3)nc2-c2csc1n2 [TP14-ct] (WWFGNKSLYRG; linker N-C via X2),"cytoplasmic uptake (CAPA), in words",HEK293H cells,taken up into HEK293H cells at a concentration of a single-digit μM
C=C1NC(=O)C(=C)NC(=O)[C@H](CCCCN)NC(=O)[C@H](CC(C)C)NC(=O)[C@H]([C@@H](C)O)NC(=O)[C@H](CCCCN)NC(=O)[C@H](Cc2ccc(O)cc2)NC(=O)[C@H]([C@@H](C)CC)NC(=O)[C@H](Cc2ccccc2)NC(=O)CNC(=O)[C@H](Cc2c[nH]c3ccccc23)NC(=O)c2ccc(-c3nc(C(=O)OC)cs3)nc2-c2csc(n2)C(=C)NC(=O)CNC1=O [TP1] (WGFIYKTLK[Dha][Dha]G; linker N-C via X1),"cytoplasmic uptake (CAPA), in words",HEK293H cells,efficient cytoplasmic translocation
same,"reactivity with GSH, in words",[5],Dha11 and Dha12 in TP1 react with GSH
same,binding to TNIK in the presence of ATP,TNIK [4],bonded to TNIK in the presence of the saturated concentration of ATP

# Source: US20260365699A1, “Compound Production Method” (The University of Tokyo, priority 2022, published 2026)
